Measured values taken from ChEMBL document CHEMBL1128760, “CCKB selective receptor ligands: novel 1,3,5-trisubstituted benzazepin-2-ones” (Bioorg Med Chem Lett, 1995).

Biological target: T1, Cholecystokinin receptor type A (Rattus norvegicus, UniProt P30551)
T1 sequence (P30551 whole entry): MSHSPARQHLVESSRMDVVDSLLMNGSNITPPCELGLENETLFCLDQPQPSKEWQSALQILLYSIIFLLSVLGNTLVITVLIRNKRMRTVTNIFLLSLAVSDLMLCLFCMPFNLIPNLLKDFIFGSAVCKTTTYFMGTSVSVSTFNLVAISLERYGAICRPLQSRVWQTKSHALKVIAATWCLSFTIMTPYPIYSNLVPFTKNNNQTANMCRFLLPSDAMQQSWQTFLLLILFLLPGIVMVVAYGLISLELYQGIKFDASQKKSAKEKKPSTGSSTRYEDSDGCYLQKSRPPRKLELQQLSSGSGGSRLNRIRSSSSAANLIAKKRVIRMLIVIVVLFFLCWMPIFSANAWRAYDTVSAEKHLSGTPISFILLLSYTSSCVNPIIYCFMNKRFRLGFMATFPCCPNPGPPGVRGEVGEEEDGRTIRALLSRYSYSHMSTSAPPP
Experiment: Inhibitory activity against Cholecystokinin type A receptor in rat pancreas using [125 I ]- CCK-8 as radioligand.

Row | IC50 [µM] | SMILES
1 | 0.646 | Cc1cccc(NC(=O)N[C@@H]2C[C@@H](N3CCCCCC3)c3ccccc3N(C)C2=O)c1
2 | 0.121 | Cc1cccc(NC(=O)N[C@@H]2C[C@H](N3CCCCCC3)c3ccccc3N(C)C2=O)c1
